{"source": "patent US9868720B2", "about": "(Genentech, Inc., priority 2013, dated 2018)", "test_system": "phosphorylation of JNK in HEK293 cells stably transfected with doxycycline-inducible Flag-tagged full length DLK", "test": "pJNK Cell based assay", "conditions": "Homo sapiens; HEK293 cells with doxycycline-induced DLK, 5.5 hours compound treatment, pJNK mean intensity by imaging; read-out: p-JNK 293 IC50", "method": "pJNK Cell based assay:HEK293 cells stably transfected with doxycycline-inducible N-terminally Flag-tagged full length DLK were plated at density of 7500 cells/well (40 μL) in 384-well Greiner bio-one μclear plate coated with Poly-D-Lysine. The cells were incubated at 37° C. in DMEM (Dulbecco's Modified Eagle Medium) media containing 10% FBS and 2 mM L-Glutamine for 20-24 hours. 5 μL of 60 μM doxycycline was added to the cells to initiate DLK expression for 20 hours at 37° C. No doxycycline was added for the negative control wells. 5 μL of compounds of formula I in various concentrations in DMEM were added to the cells and the compound treated cell culture was incubated at 37° C. for 5.5 hours prior to fixation with addition of 50 μL 4% paraformaldehyde. The wells were washed with 40 μL PBS wash twice followed by permeabilization with 0.1% Triton X-100. The cells were washed with 40 μL PBS wash twice again prior to incubation in 20 μL SuperBlock (Thermo Scientific) for 1 hour at ambient temperature. The primary antibodies (1:3000 mouse anti-Flag and 1:1000 rabbit anti-pJNK in SuperBlock) were incubated with the fixed cells overnight at 4° C. The cells were washed with 40 μL PBS twice before the addition of secondary antibodies (Anti-mouse labeled with AlexaFluor555 and anti-rabbit labeled with AlexaFluor488 in 1:2000 dilution in SuperBlock). The secondary antibodies were incubated at ambient temperature for 2 hours and were protected from light. The cells were washed with 40 μL PBS before the addition of 20 μL Hoechst 33342 (1:5000 in PBS). The plate was sealed and stored at 4° C. in the dark until imaging analyses on Opera High Content Screening System (Evotec). Three data points were reported: pJNK (mean intensity inside the search stencil), DLK (mean intensity of the 1% brightest pixels inside the search stencil) and nuclear area."}
{"compound": "CC(=O)N1CCC(C#N)(c2cc(Nc3cc(C(F)(F)F)ccn3)nc(N3CCC(F)(F)C3)n2)CC1", "note": "[1-Acetyl-4-[2-(3,3-difluoro-pyrrolidin-1-yl)-6-(4-trifluoromethyl-pyridin-2-ylamino)-pyrimidin-4-yl]-piperidine-4-carbonitrile]", "values": [{"measurement": "IC50", "value": 605, "unit": "nM"}]}
{"compound": "N#CC1(C(=O)N2CCC(c3cc(Nc4cc(C(F)(F)F)ccn4)nc(N4CCC(F)(F)C4)n3)C2)CC1", "note": "(stereo not drawn) [1-{3-[2-(3,3-Difluoro-pyrrolidin-1-yl)-6-(4-trifluoromethyl-pyridin-2-ylamino)-pyrimidin-4-yl]-pyrrolidine-1-carbonyl}-cyclopropanecarbonitrile]", "values": [{"measurement": "IC50", "value": 584, "unit": "nM"}]}
{"compound": "CN(CCO)c1nc(Nc2cc(C(F)(F)F)ccn2)cc(C2CCNC2)n1", "note": "(stereo not drawn) [2-{Methyl-[4-pyrrolidin-3-yl-6-(4-trifluoromethyl-pyridin-2-ylamino)-pyrimidin-2-yl]-amino}-ethanol]", "values": [{"measurement": "IC50", "value": 193, "unit": "nM"}]}
{"compound": "FC(F)(F)c1ccnc(Nc2cc(C3CCCNC3)nc(-c3ccccc3)n2)c1", "note": "(stereo not drawn) [(2-Phenyl-6-piperidin-3-yl-pyrimidin-4-yl)-(4-trifluoromethyl-pyridin-2-yl)-amine]", "values": [{"measurement": "IC50", "value": 1000, "unit": "nM"}]}
{"compound": "FC1(F)CCN(c2nc(Nc3cc(Cl)ccn3)cc(C3CCNCC3)n2)C1", "note": "[(4-Chloro-pyridin-2-yl)-[2-(3,3-difluoro-pyrrolidin-1-yl)-6-piperidin-4-yl-pyrimidin-4-yl]-amine]", "values": [{"measurement": "IC50", "value": 113, "unit": "nM"}]}
{"compound": "FC1(F)CCN(c2nc(Nc3cc(C4CCC4)ccn3)cc(C3CCNCC3)n2)C1", "note": "[(4-Cyclobutyl-pyridin-2-yl)-[2-(3,3-difluoro-pyrrolidin-1-yl)-6-piperidin-4-yl-pyrimidin-4-yl]-amine]", "values": [{"measurement": "IC50", "value": 200, "unit": "nM"}]}
{"compound": "FC(F)(F)c1ccnc(Nc2cc(C3CCOCC3)nc(N3CC4CC3CO4)n2)c1", "note": "(stereo not drawn) [[2-(2-Oxa-5-aza-bicyclo[2.2.1]hept-5-yl)-6-(tetrahydro-pyran-4-yl)-pyrimidin-4-yl]-(4-trifluoromethyl-pyridin-2-yl)-amine]", "values": [{"measurement": "IC50", "value": 268, "unit": "nM"}]}
{"compound": "FC(F)(F)c1ccnc(Nc2cc(C3CCNCC3)nc(N3CC4CC3CO4)n2)c1", "note": "(stereo not drawn) [[2-(2-Oxa-5-aza-bicyclo[2.2.1]hept-5-yl)-6-piperidin-4-yl-pyrimidin-4-yl]-(4-trifluoromethyl-pyridin-2-yl)-amine]", "values": [{"measurement": "IC50", "value": 389, "unit": "nM"}]}
{"compound": "FC(F)(F)c1ccnc(Nc2cc(C3CCOCC3)nc(N3CCc4nc[nH]c4C3)n2)c1", "note": "[[2-(3,4,6,7-Tetrahydro-imidazo[4,5-c]pyridin-5-yl)-6-(tetrahydro-pyran-4-yl)-pyrimidin-4-yl]-(4-trifluoromethyl-pyridin-2-yl)-amine]", "values": [{"measurement": "IC50", "value": 240, "unit": "nM"}]}
{"compound": "Cc1nccc(C2CCN(c3nc(Nc4cc(C(F)(F)F)ccn4)cc(C4CCOCC4)n3)C2)n1", "note": "(stereo not drawn) [[2-[3-(2-Methyl-pyrimidin-4-yl)-pyrrolidin-1-yl]-6-(tetrahydro-pyran-4-yl)-pyrimidin-4-yl]-(4-trifluoromethyl-pyridin-2-yl)-amine]", "values": [{"measurement": "IC50", "value": 227, "unit": "nM"}]}
{"compound": "Cc1c[nH]c(CN2CCC(c3cc(Nc4cc(C(F)(F)F)ccn4)nc(N4CC(F)(F)C4)n3)C2)n1", "note": "(stereo not drawn) [{2-(3,3-Difluoro-azetidin-1-yl)-6-[1-(4-methyl-1H-imidazol-2-ylmethyl)-pyrrolidin-3-yl]-pyrimidin-4-yl}-(4-trifluoromethyl-pyridin-2-yl)-amine]", "values": [{"measurement": "IC50", "value": 418, "unit": "nM"}]}
{"compound": "Cc1ccnc(Nc2cc(C3CCCN(C(=O)c4ccccc4)C3)nc(N3CCCC3)n2)c1", "note": "(stereo not drawn) [{3-[6-(4-Methyl-pyridin-2-ylamino)-2-pyrrolidin-1-yl-pyrimidin-4-yl]-piperidin-1-yl}-phenyl-methanone]", "values": [{"measurement": "IC50", "value": 77.9, "unit": "nM"}]}
